Measurements taken from patent US10954246B2, “Compound of EOC315 Mod.I crystal form and preparation method thereof” (Taizhou EOC Pharma Co., Ltd., priority 2017, dated 2021).
Where a name gives a salt, the structure may show the parent alone.

Tests used:
[1] = system: advanced gastric cancers or gastroesophageal junction (GEJ) cancers; experiment: Efficacy study of EOC315 with capecitabine and cisplatinum in patients; format: in vivo, human; conditions: combination with capecitabine and cisplatinum
Source text: After at most 6 cycles of cisplatinum treatment, both or either of capecitabine and EOC315 was delivered to a subject in a dosage previously used according to the toxic reaction conditions, until the disease progressed.
Forty-eight subjects in total were enrolled for this study. Forty-five subjects (94%) had tumor metastasis and thirty-five subjects (73%) had more than two metastatic sites thereinto. The livers of 26 subjects (54%) were involved due to the tumors. The major sites involved for the 26 subjects (54%) were gastroesophageal junctions, the major sites involved for 22 subjects (46%) were stomach, and the majority of the subjects got an ECOG score of 1 (n=41, 85%).
Thirty-nine subjects completed at least one course of treatment and got therapeutic effect evaluation. The objective response rate (ORR) was 67%. One subject (2.6%) achieved the complete response. […] It was evaluated that the objective response generally occurred in the previous two cycles of treatment and lasted for a long time, which was related closely to the duration of treatment received by the subjects. The anti-tumor effect was not related to tumor tissue type, the primary site, whether or not liver is involved, or the study center. Median progression-free survival (PFS) was 4.5 months. […] The median time to progression for patients showing tumor remission was 6.4 months. Median overall survival (OS) was estimated to be 7.8 months, and the 1-year survival rate was 33%.

[2] = target: VEGFR-2 (Vascular Endothelial Growth Factor Receptor-2) tyrosine kinase (Homo sapiens, UniProt P35968); conditions: cited from earlier work
[3] = system: PDGFR (Platelet-Derived Growth Factor Receptor) tyrosine kinase; conditions: cited from earlier work
[4] = Crystalline form after micronization (XRPD, DSC, HSM); format: physicochemical; conditions: micronized, D90≤15 μm
Protocol: The pressure of the micronization equipment was set to be ≥0.65 MPa to obtain an EOC315 crystalline form micropowder, with a particle size D90≤15 μm. The X-ray powder diffraction, DSC, and HSM data of the micronized sample were measured using the aforementioned methods, and the results are shown in FIG. 2, FIG. 4, and FIG. 6.

Chain of VEGFR-2 (Vascular Endothelial Growth Factor Receptor-2) tyrosine kinase (P35968 20-1356): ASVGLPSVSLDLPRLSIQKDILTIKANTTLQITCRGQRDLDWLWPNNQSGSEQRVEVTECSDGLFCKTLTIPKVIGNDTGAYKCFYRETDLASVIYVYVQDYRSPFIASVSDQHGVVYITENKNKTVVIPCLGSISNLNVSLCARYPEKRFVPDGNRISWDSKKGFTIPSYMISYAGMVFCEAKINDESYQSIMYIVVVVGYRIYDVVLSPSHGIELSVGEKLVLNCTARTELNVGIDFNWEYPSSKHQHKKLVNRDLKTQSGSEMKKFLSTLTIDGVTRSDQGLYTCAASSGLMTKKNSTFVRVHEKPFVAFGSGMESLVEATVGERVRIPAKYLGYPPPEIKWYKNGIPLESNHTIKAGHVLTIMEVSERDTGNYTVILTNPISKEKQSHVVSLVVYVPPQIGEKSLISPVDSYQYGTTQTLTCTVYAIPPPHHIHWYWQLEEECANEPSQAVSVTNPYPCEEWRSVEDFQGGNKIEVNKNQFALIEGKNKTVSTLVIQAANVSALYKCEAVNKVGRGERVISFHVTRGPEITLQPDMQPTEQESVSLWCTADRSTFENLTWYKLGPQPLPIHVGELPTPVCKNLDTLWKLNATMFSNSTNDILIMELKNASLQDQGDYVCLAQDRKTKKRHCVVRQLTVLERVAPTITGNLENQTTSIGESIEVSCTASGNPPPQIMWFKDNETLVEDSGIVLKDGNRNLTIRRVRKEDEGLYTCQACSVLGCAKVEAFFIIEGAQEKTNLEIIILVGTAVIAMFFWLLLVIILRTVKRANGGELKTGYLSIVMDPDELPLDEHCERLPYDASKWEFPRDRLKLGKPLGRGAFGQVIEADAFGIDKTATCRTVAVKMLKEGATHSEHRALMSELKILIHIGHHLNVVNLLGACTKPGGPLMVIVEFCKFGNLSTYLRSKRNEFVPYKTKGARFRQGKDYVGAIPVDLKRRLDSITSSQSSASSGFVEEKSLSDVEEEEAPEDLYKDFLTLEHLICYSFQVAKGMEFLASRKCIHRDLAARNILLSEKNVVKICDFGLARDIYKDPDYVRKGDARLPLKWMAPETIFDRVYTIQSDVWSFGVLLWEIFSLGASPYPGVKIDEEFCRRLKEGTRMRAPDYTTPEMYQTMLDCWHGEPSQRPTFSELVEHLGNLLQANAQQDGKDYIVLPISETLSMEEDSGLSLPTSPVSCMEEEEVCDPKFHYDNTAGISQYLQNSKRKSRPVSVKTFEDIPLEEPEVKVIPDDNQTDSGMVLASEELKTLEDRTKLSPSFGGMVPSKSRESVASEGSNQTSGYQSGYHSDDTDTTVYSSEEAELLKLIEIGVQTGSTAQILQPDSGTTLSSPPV

Compound | proportion of patients without tumor-progression within 6 months ([1]; Kaplan-Meier analysis) | 1-year survival rate [1] | median progression-free survival (PFS) [1] | objective response rate (ORR) ([1]; 39 evaluable subjects) | subjects with complete response ([1]; 39 evaluable subjects) | subjects with partial response ([1]; 39 evaluable subjects) | subjects with stable condition maintained more than 12 weeks ([1]; 39 evaluable subjects) | median overall survival (OS) ([1]; estimated) | median time to progression ([1]; patients showing tumor remission) | IC50 [2] | IC50 [3] | crystalline form after micronization [4]
CNC(=O)c1cc(OCc2nnc(Nc3ccc(Cl)cc3)c3ccoc23)ccn1 [EOC315, 4-(4-chloroanilino)-7-(2-methylaminocarbonyl-4-oxymethyl) pyridylfuro[2,3-d]pyridazine mesylate] | 52% | 33% | 4.5 months | 67% | 2.6% | 64.1% | 28.2% | 7.8 months | 6.4 months | 6 nM | 15 nM | –
CNC(=O)c1cc(OCc2nnc(Nc3ccc(Cl)cc3)c3ccoc23)ccn1 [micronized EOC315] | – | – | – | – | – | – | – | – | – | – | – | remained unchanged
